The subject of experiment [1] is A549. As to the kind of experiment: Cytotoxicity against human A549 cells after 24 hrs by MTT assay. It counts as functional, cell-based. Particulars: A549, 24 h. A general note: Tetrazolium dyes change colour on reduction, which living cells bring about.
Experiment [2] has as its target Receptor tyrosine-protein kinase erbB-2 (Homo sapiens, UniProt P04626). Description: Inhibition of recombinant human His-tagged HER2 cytoplasmic domain (676 to 1255 residues) expressed in baculovirus virus expression system after 1 hr by ELISA.
Experiment [3] relates to A549. As to the kind of experiment: Induction of apoptosis in human A549 cells assessed as increase in active caspase-3 level by immunoassay relative to control. In kind it is functional.
Experiment [4] concerns the target Epidermal growth factor receptor (Homo sapiens, UniProt P00533). As to the kind of experiment: Inhibition of recombinant human GST-tagged EGFR cytoplasmic domain (668 to 1210 residues) expressed in baculovirus virus expression system after 1 hr by ELISA. (In general: ELISA stands for enzyme-linked immunosorbent assay.)

Sequence of Receptor tyrosine-protein kinase erbB-2 (P04626 whole entry, the tested form may be a part): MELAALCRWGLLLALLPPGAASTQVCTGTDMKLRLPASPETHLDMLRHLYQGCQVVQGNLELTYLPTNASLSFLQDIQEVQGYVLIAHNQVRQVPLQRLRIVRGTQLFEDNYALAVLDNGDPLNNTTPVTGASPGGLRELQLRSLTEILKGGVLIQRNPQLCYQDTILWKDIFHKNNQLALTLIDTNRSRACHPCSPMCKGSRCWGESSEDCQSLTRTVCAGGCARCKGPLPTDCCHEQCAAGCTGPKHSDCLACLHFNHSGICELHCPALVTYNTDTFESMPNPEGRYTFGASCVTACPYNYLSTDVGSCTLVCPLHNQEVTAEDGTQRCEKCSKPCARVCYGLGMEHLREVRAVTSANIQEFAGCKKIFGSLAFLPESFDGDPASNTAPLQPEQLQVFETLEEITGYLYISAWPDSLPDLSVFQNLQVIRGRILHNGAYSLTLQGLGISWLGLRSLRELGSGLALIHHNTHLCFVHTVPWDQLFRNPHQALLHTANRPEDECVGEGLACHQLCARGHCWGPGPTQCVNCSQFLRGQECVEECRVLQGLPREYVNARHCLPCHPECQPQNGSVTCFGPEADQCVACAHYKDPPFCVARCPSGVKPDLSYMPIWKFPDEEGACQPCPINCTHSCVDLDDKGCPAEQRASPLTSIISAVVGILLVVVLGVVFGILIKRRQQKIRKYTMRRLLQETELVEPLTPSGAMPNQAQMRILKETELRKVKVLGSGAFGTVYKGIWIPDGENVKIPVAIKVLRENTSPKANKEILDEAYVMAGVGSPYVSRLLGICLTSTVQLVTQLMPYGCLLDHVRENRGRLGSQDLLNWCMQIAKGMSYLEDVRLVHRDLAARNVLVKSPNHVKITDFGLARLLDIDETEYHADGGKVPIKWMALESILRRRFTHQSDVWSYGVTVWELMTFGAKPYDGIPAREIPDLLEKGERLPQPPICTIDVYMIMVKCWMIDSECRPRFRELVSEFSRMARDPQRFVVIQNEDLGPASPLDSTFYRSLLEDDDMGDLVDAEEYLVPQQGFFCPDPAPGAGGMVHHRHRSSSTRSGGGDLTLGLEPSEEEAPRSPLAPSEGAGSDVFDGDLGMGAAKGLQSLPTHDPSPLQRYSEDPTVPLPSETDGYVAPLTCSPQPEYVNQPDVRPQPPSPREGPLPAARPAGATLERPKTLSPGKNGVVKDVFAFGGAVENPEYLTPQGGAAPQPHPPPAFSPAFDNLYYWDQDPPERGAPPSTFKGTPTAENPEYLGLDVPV
Sequence of Epidermal growth factor receptor (P00533 whole entry, the tested form may be a part): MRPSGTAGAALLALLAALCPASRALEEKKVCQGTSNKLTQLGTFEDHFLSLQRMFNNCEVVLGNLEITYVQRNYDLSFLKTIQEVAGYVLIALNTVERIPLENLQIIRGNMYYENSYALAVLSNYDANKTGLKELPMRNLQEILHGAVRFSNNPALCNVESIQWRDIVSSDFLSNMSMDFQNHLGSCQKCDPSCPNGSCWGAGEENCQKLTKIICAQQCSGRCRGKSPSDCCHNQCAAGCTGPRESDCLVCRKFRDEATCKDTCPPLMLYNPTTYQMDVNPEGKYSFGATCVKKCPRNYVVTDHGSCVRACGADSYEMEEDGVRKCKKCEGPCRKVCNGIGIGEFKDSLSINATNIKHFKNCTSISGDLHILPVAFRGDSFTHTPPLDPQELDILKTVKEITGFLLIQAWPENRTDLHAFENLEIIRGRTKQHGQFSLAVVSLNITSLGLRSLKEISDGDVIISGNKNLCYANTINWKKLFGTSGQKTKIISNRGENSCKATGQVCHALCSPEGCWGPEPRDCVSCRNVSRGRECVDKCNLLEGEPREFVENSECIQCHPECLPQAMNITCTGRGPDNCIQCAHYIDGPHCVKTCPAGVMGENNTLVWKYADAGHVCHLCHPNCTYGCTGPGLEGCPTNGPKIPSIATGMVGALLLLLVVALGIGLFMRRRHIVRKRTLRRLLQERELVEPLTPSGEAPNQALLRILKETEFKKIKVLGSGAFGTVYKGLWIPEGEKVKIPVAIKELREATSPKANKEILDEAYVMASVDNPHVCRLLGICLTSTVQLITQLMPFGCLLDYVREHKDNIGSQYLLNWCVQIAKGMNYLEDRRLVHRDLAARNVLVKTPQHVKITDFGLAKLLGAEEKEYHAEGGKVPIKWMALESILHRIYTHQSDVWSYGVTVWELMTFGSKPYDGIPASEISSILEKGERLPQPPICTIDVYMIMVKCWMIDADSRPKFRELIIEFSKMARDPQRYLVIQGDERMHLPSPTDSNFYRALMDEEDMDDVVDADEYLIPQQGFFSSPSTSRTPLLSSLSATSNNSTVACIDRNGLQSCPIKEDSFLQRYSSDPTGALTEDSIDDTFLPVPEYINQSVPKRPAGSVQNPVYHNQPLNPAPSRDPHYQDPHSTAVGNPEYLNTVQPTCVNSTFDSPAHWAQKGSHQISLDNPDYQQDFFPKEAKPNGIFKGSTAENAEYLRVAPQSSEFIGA

On to `NS(=O)(=O)c1ccc(-n2c(SCC(=O)NCc3ccc4c(c3)OCO4)nc3cc4ccccc4cc3c2=O)cc1`, for which the IC50 (in general, the point on the concentration scale where inhibition reaches its midpoint) in experiment [1] is 1360 nM.

As for `NS(=O)(=O)c1ccc(-n2c(SCC(=O)Nc3cc(Cl)c(Cl)cc3Cl)nc3cc4ccccc4cc3c2=O)cc1`, the figures for the IC50 in experiment [1] and in experiment [2] were 290 nM and 760 nM, respectively. The “fold change (FC)” value in experiment [3] stood at 6.28.

`NS(=O)(=O)c1ccc(-n2c(SCC(=O)Nc3cccnc3)nc3cc4ccccc4cc3c2=O)cc1` returned an IC50 in experiment [1] of 490 nM.

In experiment [1], `NS(=O)(=O)c1ccc(-n2c(SCC(=O)Nc3cccnc3Cl)nc3cc4ccccc4cc3c2=O)cc1` showed an IC50 of 670 nM.

As for `NS(=O)(=O)c1ccc(-n2c(SCC(=O)Nc3ccc([N+](=O)[O-])cc3[N+](=O)[O-])nc3cc4ccccc4cc3c2=O)cc1`, the IC50 in experiment [1] worked out at 280 nM; in experiment [4] it was 60 nM; in experiment [2] it was 300 nM. Moreover, the “fold change (FC)” value in experiment [3] is listed as 9.35.

In the case of `NS(=O)(=O)c1ccc(-n2c(SCC(=O)Nc3c(Cl)cc(Cl)cc3Cl)nc3cc4ccccc4cc3c2=O)cc1`, half-maximal inhibition in experiment [1] (IC50) required 1070 nM.

Molecule `NS(=O)(=O)c1ccc(-n2c(SCC(=O)Nc3ccc(I)cc3)nc3cc4ccccc4cc3c2=O)cc1` gave an IC50 in experiment [1] of 2530 nM.

In turn, `NS(=O)(=O)c1ccc(-n2c(SCC(=O)Nc3ccc(Br)cc3Br)nc3cc4ccccc4cc3c2=O)cc1` gave an IC50 in experiment [1] of 1500 nM.

As to `NS(=O)(=O)c1ccc(-n2c(SCC(=O)Nc3ccncc3)nc3cc4ccccc4cc3c2=O)cc1`, the IC50 in experiment [1] was found to be 500 nM.

In the case of `Cc1cccc([N+](=O)[O-])c1NC(=O)CSc1nc2cc3ccccc3cc2c(=O)n1-c1ccc(S(N)(=O)=O)cc1`, in experiment [1], the IC50 is 1480 nM.

For the molecule `NS(=O)(=O)c1ccc(-n2c(SCC(=O)Nc3ccccn3)nc3cc4ccccc4cc3c2=O)cc1`, in experiment [1], the IC50 stood at 3520 nM.

On to `NS(=O)(=O)c1ccc(-n2c(SCC(=O)Nc3cnc4ccccc4c3)nc3cc4ccccc4cc3c2=O)cc1`, for which the IC50 was determined as 120 nM in experiment [1], 110 nM in experiment [4] and 390 nM in experiment [2]. Also, in experiment [3], the “fold change (FC)” value was 8.49.

The molecule `NS(=O)(=O)c1ccc(-n2c(SCC(=O)Nc3ccc(Cl)cn3)nc3cc4ccccc4cc3c2=O)cc1` displayed an IC50 in experiment [1] of 1020 nM.

For the molecule `NS(=O)(=O)c1ccc(-n2c(SCC(=O)Nc3ccc(Br)cc3)nc3cc4ccccc4cc3c2=O)cc1`, in experiment [1], the IC50 came to 8700 nM.

In experiment [1], `NS(=O)(=O)c1ccc(-n2c(SCC(=O)Nc3ccccc3Cl)nc3cc4ccccc4cc3c2=O)cc1` gave an IC50 of 1160 nM.
